Measurements: BindingDB's records for doi:10.1021/jm990205m (University of Michigan, 2000)

assay: Antiviral activity was tested in cells acutely infected with HIV-1 Reverse transcriptase

IC50 [µM]	SMILES
> 100	CN1N=C(N)c2cn(C3O[C@H](CO)[C@H]4O[C@H]34)c3ncnc1c23 (stereo partly specified) [[4-(3-Amino-5-methyl-5H-1,4,5,6,8-pentaaza-acenaphthylen-1-yl)-3,6-dioxa-bicyclo[3.1.0]hex-2-yl]-methanol(2',3'-epoxyTCN)]

assay: Antiviral activity was tested in cells acutely infected with HIV-1 RT (reverse transcriptase)

IC50 [µM]	SMILES
> 100	CN1N=C(N)c2cn([C@@H]3O[C@H](CO)C[C@H]3O)c3ncnc1c23
100	CN1N=C(N)c2cn(C3C=C[C@@H](CO)O3)c3ncnc1c23 (stereo partly specified) [[5-(3-Amino-5-methyl-5H-1,4,5,6,8-pentaaza-acenaphthylen-1-yl)-2,5-dihydro-furan-2-yl]-methanol]
21	CN1N=C(N)c2cn([C@H]3CC[C@@H](CO)O3)c3ncnc1c23
> 100	C[C@H]1OC(n2cc3c4c(ncnc42)N(C)N=C3N)[C@H](O)[C@@H]1O (stereo partly specified)
> 100	CN1N=C(N)c2cn(C3C[C@@H](O)[C@@H](CO)O3)c3ncnc1c23 (stereo partly specified) [5-(3-Amino-5-methyl-5H-1,4,5,6,8-pentaaza-acenaphthylen-1-yl)-2-hydroxymethyl-tetrahydro-furan-3-ol]
